Drawing on ChEMBL document CHEMBL5465560, “Selectivity Literature for EUbOPEN Chemogenomic Library” (2024), this text covers % of control and % of engagement for 7 compounds.

The structures appear in SMILES notation.

Experiment [1] addresses Serine/threonine-protein kinase tousled-like 2 (Homo sapiens) (UniProt Q86UE8). Briefly: Selectivity interaction (KinomeScan (DiscoverX)) EUB0000695a TLK2. The settings on record: at 100 nM.
For experiment [2], the target named is T1, Protein kinase C zeta type (Homo sapiens) (UniProt Q05513).
T1 sequence (whole entry): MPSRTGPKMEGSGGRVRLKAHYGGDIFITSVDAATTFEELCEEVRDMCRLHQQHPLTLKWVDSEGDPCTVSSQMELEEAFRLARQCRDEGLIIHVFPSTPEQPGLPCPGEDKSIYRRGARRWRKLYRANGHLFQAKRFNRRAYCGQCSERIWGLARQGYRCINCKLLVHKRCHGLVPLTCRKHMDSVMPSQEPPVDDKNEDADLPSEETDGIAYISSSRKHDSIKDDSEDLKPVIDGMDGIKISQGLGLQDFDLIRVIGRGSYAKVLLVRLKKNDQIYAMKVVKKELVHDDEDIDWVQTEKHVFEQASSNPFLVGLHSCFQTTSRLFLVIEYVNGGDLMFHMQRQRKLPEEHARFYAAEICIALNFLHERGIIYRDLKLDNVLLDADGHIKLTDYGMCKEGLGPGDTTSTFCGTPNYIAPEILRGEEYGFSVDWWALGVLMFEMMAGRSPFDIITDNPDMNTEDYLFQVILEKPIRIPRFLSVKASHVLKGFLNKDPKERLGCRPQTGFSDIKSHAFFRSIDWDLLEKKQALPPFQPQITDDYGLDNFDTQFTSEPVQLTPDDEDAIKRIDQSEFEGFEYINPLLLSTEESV
Briefly: Selectivity interaction (ProQinase) EUB0000171b PRKCZ.

The target of experiment [3] is Insulin receptor (Homo sapiens, UniProt P06213). In words: Selectivity interaction (Ambit KINOMEscan and KiNATiv profiling in Jurkat cells) EUB0000090b INSR. Format: cell-based. The following applies: at 1 µM.
Chain of Insulin receptor (P06213 28-758 limits assumed): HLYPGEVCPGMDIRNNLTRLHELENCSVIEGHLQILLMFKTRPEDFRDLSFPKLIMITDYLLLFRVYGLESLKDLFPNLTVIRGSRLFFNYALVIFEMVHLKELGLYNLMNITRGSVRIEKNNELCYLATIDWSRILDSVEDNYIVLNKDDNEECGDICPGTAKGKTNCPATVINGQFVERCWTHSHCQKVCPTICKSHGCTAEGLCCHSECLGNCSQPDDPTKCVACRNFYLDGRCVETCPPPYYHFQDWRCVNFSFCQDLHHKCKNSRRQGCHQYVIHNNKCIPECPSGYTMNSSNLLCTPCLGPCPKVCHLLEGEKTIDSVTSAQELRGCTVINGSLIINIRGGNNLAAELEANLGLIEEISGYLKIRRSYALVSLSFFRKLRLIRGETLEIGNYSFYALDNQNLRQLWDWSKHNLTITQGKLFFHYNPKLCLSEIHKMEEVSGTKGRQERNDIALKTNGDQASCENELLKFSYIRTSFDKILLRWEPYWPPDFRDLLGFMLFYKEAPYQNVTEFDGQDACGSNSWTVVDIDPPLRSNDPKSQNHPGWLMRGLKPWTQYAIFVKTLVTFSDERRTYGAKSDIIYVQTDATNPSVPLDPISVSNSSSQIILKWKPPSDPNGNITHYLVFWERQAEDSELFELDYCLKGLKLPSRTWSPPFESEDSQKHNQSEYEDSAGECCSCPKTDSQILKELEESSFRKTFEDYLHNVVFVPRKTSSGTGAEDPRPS
Chain of Insulin receptor (P06213 763-1382 limits assumed): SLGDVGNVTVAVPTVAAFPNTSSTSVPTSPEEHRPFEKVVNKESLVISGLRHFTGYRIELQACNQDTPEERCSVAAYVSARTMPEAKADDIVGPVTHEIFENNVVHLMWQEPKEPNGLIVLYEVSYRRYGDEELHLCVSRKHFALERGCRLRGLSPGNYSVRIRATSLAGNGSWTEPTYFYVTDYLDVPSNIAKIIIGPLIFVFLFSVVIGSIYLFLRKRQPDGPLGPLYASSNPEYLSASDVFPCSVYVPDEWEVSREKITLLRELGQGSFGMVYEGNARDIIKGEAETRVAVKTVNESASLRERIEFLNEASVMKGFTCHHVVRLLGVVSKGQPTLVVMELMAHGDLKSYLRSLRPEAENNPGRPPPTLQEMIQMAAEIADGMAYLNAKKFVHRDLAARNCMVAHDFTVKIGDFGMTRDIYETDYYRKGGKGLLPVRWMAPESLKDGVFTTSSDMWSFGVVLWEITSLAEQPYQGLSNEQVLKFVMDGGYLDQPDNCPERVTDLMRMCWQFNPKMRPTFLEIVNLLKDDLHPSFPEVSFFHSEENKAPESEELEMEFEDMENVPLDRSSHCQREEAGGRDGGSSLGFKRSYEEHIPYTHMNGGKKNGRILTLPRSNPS
Experiment [4] concerns the target Vascular endothelial growth factor receptor 1 (Homo sapiens) (UniProt P17948). In words: Selectivity interaction (Ambit KINOMEscan and KiNATiv profiling in Jurkat cells) EUB0000090b FLT1. The settings on record: at 1 µM. Type of experiment: cell-based.
The target of experiment [5] is Protein kinase C eta type (Homo sapiens) (UniProt P24723). Briefly: Selectivity interaction (KinomeScan (DiscoverX)) EUB0000655a PRKCH. The settings on record: at 10 µM.
Chain of Protein kinase C eta type (Homo sapiens) (P24723 whole entry): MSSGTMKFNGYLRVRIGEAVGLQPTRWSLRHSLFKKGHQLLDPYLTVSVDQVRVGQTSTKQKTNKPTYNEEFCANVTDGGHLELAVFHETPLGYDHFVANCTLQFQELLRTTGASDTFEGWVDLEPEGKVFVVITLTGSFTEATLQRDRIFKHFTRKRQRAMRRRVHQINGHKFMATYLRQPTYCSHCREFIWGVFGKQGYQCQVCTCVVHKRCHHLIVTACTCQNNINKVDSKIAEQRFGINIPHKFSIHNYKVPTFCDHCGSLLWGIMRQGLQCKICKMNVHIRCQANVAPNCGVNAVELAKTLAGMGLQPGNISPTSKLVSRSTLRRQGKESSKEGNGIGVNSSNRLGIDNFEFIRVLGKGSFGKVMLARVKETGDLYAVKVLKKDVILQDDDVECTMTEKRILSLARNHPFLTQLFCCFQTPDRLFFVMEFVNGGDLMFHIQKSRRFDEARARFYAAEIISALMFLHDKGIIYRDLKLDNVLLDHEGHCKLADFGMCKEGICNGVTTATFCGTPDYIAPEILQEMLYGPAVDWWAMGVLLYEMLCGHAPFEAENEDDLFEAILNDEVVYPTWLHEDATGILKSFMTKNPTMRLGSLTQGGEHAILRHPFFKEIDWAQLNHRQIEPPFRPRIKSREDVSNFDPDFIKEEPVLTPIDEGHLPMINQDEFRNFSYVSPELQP
The target of experiment [6] is Mitogen-activated protein kinase kinase kinase 10 (Homo sapiens) (UniProt Q02779). In words: Selectivity interaction (KinomeScan (DiscoverX)) EUB0000618a MAP3K10. The following applies: at 10 µM.
Chain of Mitogen-activated protein kinase kinase kinase 10 (Homo sapiens) (Q02779 whole entry, looked up): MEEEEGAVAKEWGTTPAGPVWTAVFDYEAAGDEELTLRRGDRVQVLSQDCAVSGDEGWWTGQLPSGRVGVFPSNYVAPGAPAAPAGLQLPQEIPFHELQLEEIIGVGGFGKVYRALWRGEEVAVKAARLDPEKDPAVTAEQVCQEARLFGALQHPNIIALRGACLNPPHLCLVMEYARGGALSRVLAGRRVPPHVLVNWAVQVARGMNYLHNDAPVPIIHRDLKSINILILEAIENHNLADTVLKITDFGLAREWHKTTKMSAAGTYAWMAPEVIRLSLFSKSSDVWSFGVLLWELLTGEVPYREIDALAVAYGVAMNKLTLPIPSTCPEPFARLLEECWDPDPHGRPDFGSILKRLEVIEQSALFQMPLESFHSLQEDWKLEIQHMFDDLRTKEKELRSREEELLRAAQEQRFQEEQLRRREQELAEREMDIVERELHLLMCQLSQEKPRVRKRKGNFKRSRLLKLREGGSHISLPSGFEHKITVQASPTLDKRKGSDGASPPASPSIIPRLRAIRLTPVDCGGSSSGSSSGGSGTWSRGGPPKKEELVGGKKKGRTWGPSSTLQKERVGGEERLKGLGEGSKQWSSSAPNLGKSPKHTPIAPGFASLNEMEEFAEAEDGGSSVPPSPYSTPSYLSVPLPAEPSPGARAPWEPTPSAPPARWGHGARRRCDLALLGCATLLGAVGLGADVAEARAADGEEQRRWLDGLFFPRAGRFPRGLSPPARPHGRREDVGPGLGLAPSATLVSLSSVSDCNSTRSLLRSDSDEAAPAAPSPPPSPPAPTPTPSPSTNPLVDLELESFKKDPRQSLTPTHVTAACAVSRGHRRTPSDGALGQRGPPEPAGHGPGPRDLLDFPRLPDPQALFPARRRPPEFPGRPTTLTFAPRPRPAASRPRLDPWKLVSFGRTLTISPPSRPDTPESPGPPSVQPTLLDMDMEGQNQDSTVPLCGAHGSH
Experiment [7] deals with T2, Dual specificity mitogen-activated protein kinase kinase 7 (Homo sapiens) (UniProt O14733).
T2 sequence (whole entry): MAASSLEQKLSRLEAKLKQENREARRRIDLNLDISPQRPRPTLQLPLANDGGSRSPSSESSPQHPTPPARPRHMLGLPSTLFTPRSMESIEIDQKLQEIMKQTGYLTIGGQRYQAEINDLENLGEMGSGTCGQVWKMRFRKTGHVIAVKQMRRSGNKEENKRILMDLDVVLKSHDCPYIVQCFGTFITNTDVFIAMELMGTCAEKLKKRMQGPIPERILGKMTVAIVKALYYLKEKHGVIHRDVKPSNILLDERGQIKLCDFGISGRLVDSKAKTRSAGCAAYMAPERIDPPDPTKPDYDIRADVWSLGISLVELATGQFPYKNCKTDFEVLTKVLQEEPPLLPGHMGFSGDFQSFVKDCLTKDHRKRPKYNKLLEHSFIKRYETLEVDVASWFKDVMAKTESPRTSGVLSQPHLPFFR
Briefly: Selectivity interaction (Millipore kinase profiler) EUB0000124b MAP2K7. The settings on record: at 10 µM.

Experiment [8] addresses T3, Mitogen-activated protein kinase kinase kinase kinase 2 (Homo sapiens) (UniProt Q12851).
T3 sequence (whole entry): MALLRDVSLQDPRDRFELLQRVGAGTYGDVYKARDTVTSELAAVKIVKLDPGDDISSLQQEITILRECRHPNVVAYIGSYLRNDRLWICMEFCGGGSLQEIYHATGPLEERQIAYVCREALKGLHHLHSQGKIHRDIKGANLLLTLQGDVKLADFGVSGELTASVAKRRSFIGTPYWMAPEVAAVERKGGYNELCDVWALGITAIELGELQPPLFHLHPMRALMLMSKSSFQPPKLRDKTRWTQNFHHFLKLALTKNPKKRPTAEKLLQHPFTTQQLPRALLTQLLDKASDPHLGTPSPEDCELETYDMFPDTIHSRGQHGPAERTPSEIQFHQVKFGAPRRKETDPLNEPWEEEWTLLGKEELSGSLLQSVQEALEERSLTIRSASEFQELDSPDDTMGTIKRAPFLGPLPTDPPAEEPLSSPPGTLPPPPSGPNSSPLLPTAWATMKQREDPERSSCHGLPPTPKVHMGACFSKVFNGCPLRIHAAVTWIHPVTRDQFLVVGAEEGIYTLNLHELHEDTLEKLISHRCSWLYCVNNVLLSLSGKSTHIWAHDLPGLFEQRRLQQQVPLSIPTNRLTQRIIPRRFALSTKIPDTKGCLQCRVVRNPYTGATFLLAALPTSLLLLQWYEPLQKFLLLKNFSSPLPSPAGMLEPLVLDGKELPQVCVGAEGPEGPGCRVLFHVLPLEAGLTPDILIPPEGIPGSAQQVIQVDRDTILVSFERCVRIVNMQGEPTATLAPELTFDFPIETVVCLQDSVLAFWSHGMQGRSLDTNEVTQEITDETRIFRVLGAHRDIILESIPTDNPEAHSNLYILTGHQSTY
Briefly: Selectivity interaction (Kinase panel (KiNativ target engagement assay in Jurkat cells)) EUB0001635a MAP4K2. Type of experiment: cell-based. The settings on record: Selectivity number of off-targets 0.0, Selectivity number of targets 233.0, Source Knowledge https://www.sciencedirect.com/science/article/pii/S2451945619300674?via%3Dihub, at 1 µM.

Chain of Vascular endothelial growth factor receptor 1 (Homo sapiens) (P17948 whole entry): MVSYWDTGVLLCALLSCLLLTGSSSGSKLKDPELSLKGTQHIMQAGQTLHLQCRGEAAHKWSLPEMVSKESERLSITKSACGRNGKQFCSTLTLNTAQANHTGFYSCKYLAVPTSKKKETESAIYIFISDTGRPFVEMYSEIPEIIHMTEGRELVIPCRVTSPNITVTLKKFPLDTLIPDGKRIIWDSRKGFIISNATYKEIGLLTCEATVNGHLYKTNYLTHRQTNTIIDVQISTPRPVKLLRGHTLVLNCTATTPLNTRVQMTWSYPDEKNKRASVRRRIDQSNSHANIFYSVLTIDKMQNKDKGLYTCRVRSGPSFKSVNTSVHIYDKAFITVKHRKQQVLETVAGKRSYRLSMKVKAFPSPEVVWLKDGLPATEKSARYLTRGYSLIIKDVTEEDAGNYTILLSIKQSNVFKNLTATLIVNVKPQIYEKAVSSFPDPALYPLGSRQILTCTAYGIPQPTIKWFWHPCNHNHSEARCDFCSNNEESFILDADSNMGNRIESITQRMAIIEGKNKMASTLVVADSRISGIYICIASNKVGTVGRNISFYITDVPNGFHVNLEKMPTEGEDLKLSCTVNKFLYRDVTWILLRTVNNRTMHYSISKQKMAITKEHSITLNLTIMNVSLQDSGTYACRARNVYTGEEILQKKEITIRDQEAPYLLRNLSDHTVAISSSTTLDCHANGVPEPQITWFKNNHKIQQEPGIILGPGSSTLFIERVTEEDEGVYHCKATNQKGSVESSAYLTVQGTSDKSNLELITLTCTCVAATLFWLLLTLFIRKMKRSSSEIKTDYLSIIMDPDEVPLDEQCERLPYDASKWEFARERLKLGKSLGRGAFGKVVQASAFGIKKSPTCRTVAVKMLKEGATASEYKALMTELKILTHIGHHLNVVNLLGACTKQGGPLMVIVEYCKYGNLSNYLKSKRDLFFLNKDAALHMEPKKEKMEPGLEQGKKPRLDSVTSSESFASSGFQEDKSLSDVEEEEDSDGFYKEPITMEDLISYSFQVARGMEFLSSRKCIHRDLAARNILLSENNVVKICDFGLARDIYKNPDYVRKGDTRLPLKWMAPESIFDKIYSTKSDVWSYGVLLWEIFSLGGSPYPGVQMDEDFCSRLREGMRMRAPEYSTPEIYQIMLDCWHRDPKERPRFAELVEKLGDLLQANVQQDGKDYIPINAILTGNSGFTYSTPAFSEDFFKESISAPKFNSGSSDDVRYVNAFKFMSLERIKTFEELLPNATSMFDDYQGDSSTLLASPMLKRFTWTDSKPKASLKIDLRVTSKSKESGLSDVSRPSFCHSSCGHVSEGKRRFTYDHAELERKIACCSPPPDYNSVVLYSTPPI
Chain of Serine/threonine-protein kinase tousled-like 2 (Homo sapiens) (Q86UE8 whole entry, looked up): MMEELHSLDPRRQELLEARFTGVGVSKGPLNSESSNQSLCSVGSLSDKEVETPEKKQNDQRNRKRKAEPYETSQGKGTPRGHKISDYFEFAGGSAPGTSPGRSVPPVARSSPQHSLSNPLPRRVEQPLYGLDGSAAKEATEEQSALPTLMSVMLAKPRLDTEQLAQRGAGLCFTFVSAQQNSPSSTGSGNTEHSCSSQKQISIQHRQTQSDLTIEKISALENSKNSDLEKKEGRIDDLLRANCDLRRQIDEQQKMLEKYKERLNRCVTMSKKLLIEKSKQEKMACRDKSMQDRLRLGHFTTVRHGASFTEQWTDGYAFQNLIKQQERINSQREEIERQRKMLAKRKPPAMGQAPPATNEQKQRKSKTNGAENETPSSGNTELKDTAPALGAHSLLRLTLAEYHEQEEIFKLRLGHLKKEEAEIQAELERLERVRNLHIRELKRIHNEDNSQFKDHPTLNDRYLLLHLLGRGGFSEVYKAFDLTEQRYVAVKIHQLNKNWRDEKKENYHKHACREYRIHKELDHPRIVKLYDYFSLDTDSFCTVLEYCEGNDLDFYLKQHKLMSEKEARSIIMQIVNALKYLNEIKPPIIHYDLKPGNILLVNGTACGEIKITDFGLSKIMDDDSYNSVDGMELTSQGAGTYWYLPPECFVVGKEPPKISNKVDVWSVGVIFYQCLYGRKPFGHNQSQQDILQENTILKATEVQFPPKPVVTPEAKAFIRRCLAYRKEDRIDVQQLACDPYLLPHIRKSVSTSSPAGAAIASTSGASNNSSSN

`Cc1cc(F)c(C(=O)Nc2cccc(-c3nncn3C(C)C)n2)cc1-n1cnc(C2CC2)c1` displayed a % of control in experiment [1] of 100%.

As for `C=CC(=O)Nc1cccc(C(=O)Nc2ccc(Nc3cc(-c4[nH]c(SC)nc4C)ccn3)cc2)c1`, the % of control stood at 87% in experiment [2] (at 1 µM) and 86% in experiment [2] (at 5 µM).

For the compound `CN(C)C/C=C/C(=O)Nc1ccc(C(=O)N2CCCC(Nc3ncc(Cl)c(-c4c[nH]c5ccccc45)n3)C2)cc1` (centres undefined), the % of control in experiment [3] stood at 100%; in experiment [4], 85%.

For `CN(C)CCOc1ccc(-c2nc(-c3ccncc3)c(-c3ccc4c(c3)CC/C4=N\O)[nH]2)cc1`, in experiment [5], the % of control was found to be 100%.

Compound `O[C@H]1CC[C@H](Nc2ncc3nc(Nc4c(F)cc(F)cc4F)n([C@H]4CCOC4)c3n2)CC1` showed a % of control in experiment [6] of 100%.

Turning to `CC(=O)Nc1cccc(-n2c(=O)n(C3CC3)c(=O)c3c(Nc4ccc(I)cc4F)n(C)c(=O)c(C)c32)c1`, in experiment [7], the % of control was found to be 109%.

As for `C=CC(=O)Nc1ccc(C(=O)Nc2[nH]nc3c2CN(C(=O)N[C@H](CN(C)C)c2ccccc2)C3(C)C)cc1`, the % of engagement in experiment [8] is -6.1%.
